Assay [1] has as its system U-2 OS. The assay can be described thus: cell painting activity score (Mahalanobis distance from DMSO wells); higher = stronger morphological phenotype. To be noted: 24 h. As to the method: (§1)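 Cell painting in U-2 OS cells (384-well, about 1,500 cells per well), compound exposure 24 h, usually six 2-fold concentrations from 20 to 0.625 uM (some compounds higher or lower). Relative cell count is the cell number per well relative to DMSO wells. Activity score is the Mahalanobis distance of the morphological profile from DMSO control wells. Mean of four technical replicate plates.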

Assay [2] deals with U-2 OS. The assay can be described thus: relative cell count vs DMSO (cell painting) (fraction of DMSO control); higher = more cells remaining (less cytotoxic). Conditions: 24 h. Here is the method:
as §1

Data on twelve compounds can be found in the supplement of paper PMC10011410.

For the compound `CC(C)(C)c1cc(O)ccc1O`, the “cell painting activity score” value with U-2 OS [1] (0.625 µM) is 4.14; in the assay with U-2 OS [1] (1.25 µM), 4.2; in the assay on U-2 OS [1] (2.5 µM), 5.45; with U-2 OS [1] (5 µM) it was 5.28; with U-2 OS [1] (10 µM), 4.94; with U-2 OS [1] (20 µM), 7.97. The relative cell count with U-2 OS [2] (0.625 µM) came to 0.908; with U-2 OS [2] (1.25 µM) it was 0.958; with U-2 OS [2] (2.5 µM), 0.948; with U-2 OS [2] (5 µM), 0.913; in the assay on U-2 OS [2] (10 µM), 0.945; with U-2 OS [2] (20 µM) it was 0.949.
Regarding `N#CC(C#N)=NNc1cccc(Cl)c1`, the “cell painting activity score” value in the assay on U-2 OS [1] (0.625 µM) came out at 5.76; in the assay on U-2 OS [1] (1.25 µM), 5.02; in the assay with U-2 OS [1] (2.5 µM), 7.58; in the assay with U-2 OS [1] (5 µM), 9.31; in the assay on U-2 OS [1] (10 µM) it was 13.4; in the assay with U-2 OS [1] (20 µM) it was 16.2. Besides, the relative cell count was 0.975 in the assay with U-2 OS [2] (0.625 µM); 0.949 in the assay with U-2 OS [2] (1.25 µM); 0.98 with U-2 OS [2] (2.5 µM); 0.897 with U-2 OS [2] (5 µM); 0.711 with U-2 OS [2] (10 µM); 0.491 in the assay on U-2 OS [2] (20 µM).
In the case of `Cc1ccc(S(=O)(=O)/C=C/C#N)cc1`, the “cell painting activity score” value was found to be 10.4 in the assay with U-2 OS [1] (0.625 µM); 12.9 with U-2 OS [1] (1.25 µM); 16.7 in the assay with U-2 OS [1] (2.5 µM); 18.3 in the assay on U-2 OS [1] (5 µM); 21 in the assay with U-2 OS [1] (10 µM); 23.7 with U-2 OS [1] (20 µM). The relative cell count came out at 0.923 in the assay on U-2 OS [2] (0.625 µM); 0.942 in the assay with U-2 OS [2] (1.25 µM); 0.678 in the assay with U-2 OS [2] (2.5 µM); 0.485 in the assay on U-2 OS [2] (5 µM); 0.231 in the assay on U-2 OS [2] (10 µM); 0.286 in the assay on U-2 OS [2] (20 µM).
Turning to `CO[C@@H]1[C@H](N(C)C(=O)c2ccccc2)C[C@H]2O[C@]1(C)n1c3ccccc3c3c4c(c5c6ccccc6n2c5c31)C(=O)NC4`, the “cell painting activity score” value in the assay with U-2 OS [1] (0.625 µM) stood at 13.9; in the assay with U-2 OS [1] (1.25 µM), 15.2; in the assay on U-2 OS [1] (2.5 µM), 19.8; with U-2 OS [1] (5 µM) it was 22.9; in the assay on U-2 OS [1] (10 µM) it was 23.7; with U-2 OS [1] (20 µM), 24.4. Further, the relative cell count in the assay on U-2 OS [2] (0.625 µM) was determined as 1.02; in the assay on U-2 OS [2] (1.25 µM), 0.757; in the assay with U-2 OS [2] (2.5 µM) it was 0.456; in the assay on U-2 OS [2] (5 µM) it was 0.362; in the assay on U-2 OS [2] (10 µM), 0.347; in the assay on U-2 OS [2] (20 µM), 0.354.
With `CCc1c2c(nc3ccc(O)cc13)-c1cc3c(c(=O)n1C2)COC(=O)[C@]3(O)CC`, the “cell painting activity score” value with U-2 OS [1] (0.625 µM) was 12; with U-2 OS [1] (1.25 µM), 12.3; in the assay with U-2 OS [1] (2.5 µM), 12.7; in the assay on U-2 OS [1] (5 µM), 12.3; in the assay on U-2 OS [1] (10 µM), 12.1; in the assay with U-2 OS [1] (20 µM), 14.9. For the same compound, the relative cell count was 0.523 in the assay on U-2 OS [2] (0.625 µM); 0.525 in the assay with U-2 OS [2] (1.25 µM); 0.515 in the assay with U-2 OS [2] (2.5 µM); 0.467 in the assay on U-2 OS [2] (5 µM); 0.446 in the assay with U-2 OS [2] (10 µM); 0.482 in the assay with U-2 OS [2] (20 µM).
For the compound `CC(C)C[C@@H](C=O)NC(=O)[C@@H](CC(C)C)NC(=O)[C@H](CC(C)C)NC(=O)OCc1ccccc1`, the “cell painting activity score” value with U-2 OS [1] (0.625 µM) came out at 4.19; in the assay with U-2 OS [1] (1.25 µM), 4.34; in the assay on U-2 OS [1] (2.5 µM), 5.35; in the assay with U-2 OS [1] (5 µM), 5.4; with U-2 OS [1] (10 µM), 3.89; in the assay on U-2 OS [1] (20 µM) it was 7.43. The relative cell count amounted to 1 with U-2 OS [2] (0.625 µM); 0.959 in the assay with U-2 OS [2] (1.25 µM); 0.944 in the assay with U-2 OS [2] (2.5 µM); 0.993 with U-2 OS [2] (5 µM); 0.986 in the assay on U-2 OS [2] (10 µM); 0.909 in the assay with U-2 OS [2] (20 µM).
For `CCCCCCCCCCCCCCCCCCOP(=O)([O-])OC1CC[N+](C)(C)CC1`, the “cell painting activity score” value in the assay on U-2 OS [1] (0.625 µM) is 3.72; in the assay on U-2 OS [1] (1.25 µM), 3.21; with U-2 OS [1] (2.5 µM) it was 3.03; with U-2 OS [1] (5 µM) it was 3.98; with U-2 OS [1] (10 µM), 3.76; in the assay on U-2 OS [1] (20 µM), 4.51. For the same compound, the relative cell count in the assay with U-2 OS [2] (0.625 µM) turned out to be 1.02; in the assay with U-2 OS [2] (1.25 µM), 1.03; in the assay with U-2 OS [2] (2.5 µM) it was 1.11; in the assay with U-2 OS [2] (5 µM), 1.05; with U-2 OS [2] (10 µM) it was 1.05; in the assay on U-2 OS [2] (20 µM), 1.02.
Regarding `C=CCNC1=C2C[C@@H](C)C[C@H](OC)[C@H](O)[C@@H](C)/C=C(\C)[C@H](OC(N)=O)[C@@H](OC)/C=C\C=C(/C)C(=O)NC(=CC1=O)C2=O`, the “cell painting activity score” value in the assay on U-2 OS [1] (0.625 µM) worked out at 16.6; in the assay on U-2 OS [1] (1.25 µM), 19.1; in the assay on U-2 OS [1] (2.5 µM), 19.1; in the assay on U-2 OS [1] (5 µM) it was 19.1; in the assay with U-2 OS [1] (10 µM), 19.2; in the assay on U-2 OS [1] (20 µM), 18.3. The relative cell count turned out to be 0.814 in the assay on U-2 OS [2] (0.625 µM); 0.697 in the assay with U-2 OS [2] (1.25 µM); 0.61 in the assay with U-2 OS [2] (2.5 µM); 0.586 in the assay on U-2 OS [2] (5 µM); 0.589 in the assay on U-2 OS [2] (10 µM); 0.549 with U-2 OS [2] (20 µM).
Turning to `O=C(O)C1(C(=O)O)CCC1.[NH2-].[NH2-].[Pt+2]`, the “cell painting activity score” value in the assay on U-2 OS [1] (0.625 µM) came out at 4.1; in the assay with U-2 OS [1] (1.25 µM), 4.15; in the assay on U-2 OS [1] (2.5 µM), 4.49; in the assay with U-2 OS [1] (5 µM), 4.29; in the assay on U-2 OS [1] (10 µM), 5.7; in the assay on U-2 OS [1] (20 µM) it was 6.66. The relative cell count in the assay on U-2 OS [2] (0.625 µM) came out at 0.92; in the assay with U-2 OS [2] (1.25 µM), 0.853; with U-2 OS [2] (2.5 µM) it was 0.786; with U-2 OS [2] (5 µM), 0.855; in the assay with U-2 OS [2] (10 µM), 0.844; in the assay on U-2 OS [2] (20 µM), 0.814.
As to `CC(C)C[C@@H](C=O)NC(=O)[C@H](CC(C)C)NC(=O)[C@H](CC(C)C)NC(=O)OCc1ccccc1`, the “cell painting activity score” value is 5.55 with U-2 OS [1] (0.625 µM); 9.38 in the assay on U-2 OS [1] (1.25 µM); 15.5 with U-2 OS [1] (2.5 µM); 15.7 with U-2 OS [1] (5 µM); 16 in the assay with U-2 OS [1] (10 µM); 17.7 in the assay with U-2 OS [1] (20 µM). The relative cell count was found to be 0.974 in the assay with U-2 OS [2] (0.625 µM); 0.824 in the assay on U-2 OS [2] (1.25 µM); 0.479 with U-2 OS [2] (2.5 µM); 0.226 in the assay on U-2 OS [2] (5 µM); 0.124 with U-2 OS [2] (10 µM); 0.103 in the assay on U-2 OS [2] (20 µM).
Regarding `COc1ccc2cc1Oc1ccc(cc1)C[C@H]1c3cc(c(OC)cc3CCN1C)Oc1c(OC)c(OC)cc3c1[C@H](C2)N(C)CC3`, the “cell painting activity score” value in the assay with U-2 OS [1] (0.625 µM) was determined as 5.28; with U-2 OS [1] (1.25 µM), 5.79; in the assay on U-2 OS [1] (2.5 µM), 5.97; in the assay on U-2 OS [1] (5 µM), 16.8; in the assay on U-2 OS [1] (10 µM) it was 28.3; in the assay on U-2 OS [1] (20 µM), 14.8. Moreover, the relative cell count is 1.08 with U-2 OS [2] (0.625 µM); 1.06 in the assay with U-2 OS [2] (1.25 µM); 1.04 in the assay with U-2 OS [2] (2.5 µM); 1.07 in the assay with U-2 OS [2] (5 µM); 0.973 in the assay on U-2 OS [2] (10 µM); 0.322 in the assay with U-2 OS [2] (20 µM).
In the case of `C[C@H](CC[C@@]1(O)O[C@H]2C[C@H]3[C@@H]4CC=C5C[C@@H](O[C@@H]6O[C@H](CO)[C@@H](O[C@@H]7O[C@@H](C)[C@H](O)[C@@H](O)[C@H]7O)[C@H](O)[C@H]6O[C@@H]6O[C@@H](C)[C@H](O)[C@@H](O)[C@H]6O)CC[C@]5(C)[C@H]4CC[C@]3(C)[C@H]2[C@@H]1C)CO[C@@H]1O[C@H](CO)[C@@H](O)[C@H](O)[C@H]1O`, the “cell painting activity score” value in the assay on U-2 OS [1] (0.625 µM) came to 14.9; in the assay on U-2 OS [1] (1.25 µM) it was 14.4; in the assay with U-2 OS [1] (2.5 µM), 15.1; in the assay with U-2 OS [1] (5 µM) it was 16.6; in the assay with U-2 OS [1] (10 µM), 21; in the assay on U-2 OS [1] (20 µM) it was 22.7. Moreover, the relative cell count in the assay on U-2 OS [2] (0.625 µM) is 0.811; in the assay on U-2 OS [2] (1.25 µM) it was 0.808; with U-2 OS [2] (2.5 µM), 0.734; in the assay on U-2 OS [2] (5 µM), 0.502; in the assay on U-2 OS [2] (10 µM) it was 0.0412; with U-2 OS [2] (20 µM), 0.0114.
